What all share (type): biochemical
Assay [1] concerns the target Pim-1 (Homo sapiens (Human), UniProt P11309). Description: Pim-1 kinase assay. The conditions noted are these: 1 mM ATP; read-out: PIM1 IC50. The method in brief:
(§1)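 Enzyme at 2.5 pM (Pim-1) or 1.25 pM (Pim-3) reacted 1 h at 25° C with 1 mM ATP and 0.05 μM biotinylated BAD peptide, pH 7.5. Phospho-Ser112 BAD detected by antibody/Protein-A acceptor and streptavidin donor bead proximity signal after EDTA quench and 1 h dark incubation.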

Assay [2] deals with Pim-3 (Homo sapiens (Human), UniProt Q86V86). Description: Pim-3 kinase assay. Conditions: 1 mM ATP; read-out: PIM3 IC50. In a few lines: as §1
Assay [3] deals with Pim-2 (Homo sapiens (Human), UniProt Q9P1W9). Description: Pim-2 kinase assay. Conditions: 1 mM ATP; read-out: PIM2 IC50. In a few lines: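 TR-FRET assay with 1 nM enzyme, 0.05 μM fluorescein-CREBtide and 1 mM ATP in Tris pH 7.5 buffer with MgCl2, DTT, BSA and Tween-20, run 2 h at 25° C. Stopped with EDTA and Tb-labelled anti-CREB pSer133 antibody, then read after 30 min at room temperature.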

What is called IC50 is the point on the concentration scale where inhibition reaches its midpoint.

Chain of Pim-2 (Q9P1W9 whole entry): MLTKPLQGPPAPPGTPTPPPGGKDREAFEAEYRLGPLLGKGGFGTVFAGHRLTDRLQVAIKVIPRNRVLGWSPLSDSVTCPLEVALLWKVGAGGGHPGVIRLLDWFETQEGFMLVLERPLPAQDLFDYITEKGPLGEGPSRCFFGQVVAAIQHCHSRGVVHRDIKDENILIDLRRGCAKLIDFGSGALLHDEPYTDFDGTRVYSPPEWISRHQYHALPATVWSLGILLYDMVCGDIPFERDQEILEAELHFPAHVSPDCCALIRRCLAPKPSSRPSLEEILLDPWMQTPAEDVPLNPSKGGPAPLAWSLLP
Chain of Pim-1 (P11309 whole entry): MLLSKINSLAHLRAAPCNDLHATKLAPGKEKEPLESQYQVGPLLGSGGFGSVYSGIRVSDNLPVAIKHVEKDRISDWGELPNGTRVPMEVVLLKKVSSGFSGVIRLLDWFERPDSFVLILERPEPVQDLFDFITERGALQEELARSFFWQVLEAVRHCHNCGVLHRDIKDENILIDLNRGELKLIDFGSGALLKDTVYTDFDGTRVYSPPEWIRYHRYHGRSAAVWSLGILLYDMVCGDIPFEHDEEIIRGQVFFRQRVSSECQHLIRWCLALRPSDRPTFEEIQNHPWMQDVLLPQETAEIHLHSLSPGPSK

For `C[C@@H]1C[C@H](N)C[C@H](c2ccncc2NC(=O)c2ccc(F)c3cc(N4CC5CCC4C5)cnc23)C1` (stereo partly drawn) [Example 96, N-(4-((1R,3S,5S)-3-Amino-5-methylcyclohexyl)pyridin-3-yl)-3-(2-azabicyclo[2.2.1]heptan-2-yl)-5-fluoroquinoline-8-carboxamide], the values for the IC50 in assay [1], in assay [2] and in assay [3] were ≤ 0.01 µM, ≤ 0.01 µM and ≤ 0.1 µM, respectively.
As to `C[C@@H]1C[C@H](N)C[C@H](c2ccncc2NC(=O)c2ccc(F)c3cc(N4C5CCC4COC5)cnc23)C1` [Example 77, N-(4-((1R,3S,5S)-3-Amino-5-methylcyclohexyl)pyridin-3-yl)-3-(3-oxa-8-azabicyclo[3.2.1]octan-8-yl)-5-fluoroquinoline-8-carboxamide], the IC50 is ≤ 0.01 µM in assay [1], ≤ 0.01 µM in assay [2] and ≤ 0.1 µM in assay [3].
As for `CC(C)N1CCN(c2cnc3c(C(=O)Nc4cnccc4[C@@H]4C[C@H](C)C[C@H](N)C4)ccc(F)c3c2)CC1=O` [Example 115, N-(4-((1R,3S,5S)-3-Amino-5-methylcyclohexyl)pyridin-3-yl)-5-fluoro-3-(4-isopropyl-3-oxopiperazin-1-yl)quinoline-8-carboxamide], the IC50 in assay [1] is ≤ 0.01 µM; in assay [2], ≤ 0.01 µM; in assay [3] it was ≤ 0.1 µM.
`C[C@@H]1C[C@H](N)C[C@H](c2ccncc2NC(=O)c2ccc(F)c3cc(N4CC[C@H]4C)cnc23)C1` [Example 167, N-(4-((1R,3S,5S)-3-Amino-5-methylcyclohexyl)pyridin-3-yl)-5-fluoro-3-((R)-2-methylazetidin-1-yl)quinoline-8-carboxamide]: the half-maximal inhibitory concentration (IC50) was ≤ 0.01 µM in assay [1], ≤ 0.01 µM in assay [2] and ≤ 0.1 µM in assay [3].
Take `C[C@@H]1C[C@H](N)C[C@H](c2ccncc2NC(=O)c2ccc(F)c3cc(N4CC[C@H](C#N)C4)cnc23)C1` [Example 7, N-{4-[(1R,3S,5S)-3-Amino-5-methylcyclohexyl]pyridin-3-yl}-3-[(3S)-3-cyanopyrrolidin-1-yl]-5-fluoroquinoline-8-carboxamide]: the IC50 in assay [1] was ≤ 0.01 µM; in assay [2] it was ≤ 0.01 µM; in assay [3], ≤ 0.1 µM.
With `C[C@@H]1C[C@H](N)C[C@H](c2ccncc2NC(=O)c2ccc(F)c3cc(N4CCC[C@@H](F)C4)cnc23)C1` [Example 2, N-{4-[(1R,3S,5S)-3-Amino-5-methylcyclohexyl]pyridin-3-yl}-5-fluoro-3-[(3,R)-3-fluoropiperidin-1-yl]quinoline-8-carboxamide], the IC50 in assay [1] is ≤ 0.01 µM; in assay [2] it was ≤ 0.01 µM; in assay [3], ≤ 0.1 µM.
In the case of `C[C@@H]1C[C@H](N)C[C@H](c2ccncc2NC(=O)c2ccc(F)c3cc(N4CCCC4)cnc23)C1` [Example 3, N-{4-[(1R,3S,5S)-3-Amino-5-methylcyclohexyl]pyridin-3-yl}-5-fluoro-3-pyrrolidin-1-ylquinoline-8-carboxamide], the results for the IC50 in assay [1], in assay [2] and in assay [3] were ≤ 0.01 µM, 0.01 to 0.05 µM and 0.1 to 1 µM, respectively.
For `C[C@@H]1C[C@H](N)C[C@H](c2ccncc2NC(=O)c2ccc(F)c3cc(-c4cnn(C)c4)cnc23)C1` [Example 64, N-(4-((1R,3S,5S)-3-Amino-5-methylcyclohexyl)pyridin-3-yl)-5-fluoro-3-(1-methyl-1H-pyrazol-4-yl)quinoline-8-carboxamide], the IC50 in assay [1] was ≤ 0.01 µM; in assay [2], ≤ 0.01 µM; in assay [3], 0.1 to 1 µM.
Consider `COc1ccc(N(C)c2cnc3c(C(=O)Nc4cnccc4[C@@H]4C[C@H](C)C[C@H](N)C4)ccc(F)c3c2)cc1` [Example 148, N-(4-((1R,3S,5S)-3-Amino-5-methylcyclohexyl)pyridin-3-yl)-5-fluoro-3-((4-methoxyphenyl)(methyl)amino)quinoline-8-carboxamide], for which the IC50 in assay [1] is ≤ 0.01 µM; in assay [2] it was ≤ 0.01 µM; in assay [3] it was ≤ 0.1 µM.
In the case of `CO[C@H]1CCN(c2cnc3c(C(=O)Nc4cnccc4[C@@H]4C[C@H](C)C[C@H](N)C4)ccc(F)c3c2)C1` [Example 50, N-(4-((1R,3S,5S)-3-Amino-5-methylcyclohexyl)pyridin-3-yl)-5-fluoro-3-((S)-3-methoxypyrrolidin-1-yl)quinoline-8-carboxamide], the IC50 in assay [1] was ≤ 0.01 µM; in assay [2], ≤ 0.01 µM; in assay [3], ≤ 0.1 µM.
`C[C@@H]1C[C@H](N)C[C@H](c2ccncc2NC(=O)c2ccc(F)c3cc(N4CCn5cnnc5C4)cnc23)C1` [Example 134, N-(4-((1R,3S,5S)-3-Amino-5-methylcyclohexyl)pyridin-3-yl)-3-(5,6-dihydro-[1,2,4]triazolo[4,3-a]pyrazin-7(8H)-yl)-5-fluoroquinoline-8-carboxamide]: the IC50 in assay [1] is ≤ 0.01 µM; in assay [2], ≤ 0.01 µM; in assay [3] it was 0.1 to 1 µM.
For `C[C@@H]1C[C@H](N)C[C@H](c2ccncc2NC(=O)c2ccc(F)c3cc(N4C[C@@H](O)C[C@H]4C)cnc23)C1` [Example 164, N-(4-((1R,3S,5S)-3-Amino-5-methylcyclohexyl]pyridin-3-yl}-5-fluoro-3-[(2R,4S)-4-hydroxy-2-methylpyrrolidin-1-yl]quinoline-8-carboxamide], the values for the IC50 in assay [1], in assay [2] and in assay [3] were ≤ 0.01 µM, ≤ 0.01 µM and ≤ 0.1 µM, respectively.
`C[C@@H]1C[C@H](N)C[C@H](c2ccncc2NC(=O)c2ccc(F)c3cc(N(C)c4ncccc4OC(F)F)cnc23)C1` [Example 139, N-(4-((1R,3S,5S)-3-Amino-5-methylcyclohexyl)pyridin-3-yl)-3-((3-(difluoromethoxy)pyridin-2-yl)(methyl)amino)-5-fluoroquinoline-8-carboxamide]: the IC50 is ≤ 0.01 µM in assay [1], ≤ 0.01 µM in assay [2] and ≤ 0.1 µM in assay [3].
`CC(C)[C@@H](C)Nc1cnc2c(C(=O)Nc3cnccc3[C@@H]3C[C@H](C)C[C@H](N)C3)ccc(F)c2c1` [Example 54, N-(4-((1R,3S,5S)-3-amino-5-methylcyclohexyl)pyridin-3-yl)-5-fluoro-3-((R)-3-methylbutan-2-ylamino)quinoline-8-carboxamide]: the values for the IC50 in assay [1], in assay [2] and in assay [3] were ≤ 0.01 µM, ≤ 0.01 µM and 0.1 to 1 µM, respectively.
Take `CCOC(=O)N1CCN(c2cnc3c(C(=O)Nc4cnccc4[C@@H]4C[C@H](C)C[C@H](N)C4)ccc(F)c3c2)CC1` [Example 168, Ethyl 4-(8-(4-((1R,3S,5S)-3-amino-5-methylcyclohexyl)pyridin-3-ylcarbamoyl)-5-fluoroquinolin-3-yl)piperazine-1-carboxylate]: the half-maximal inhibitory concentration (IC50) in assay [1] is ≤ 0.01 µM; in assay [2], ≤ 0.01 µM; in assay [3], 0.1 to 1 µM.
For the molecule `CC1CCC1N(C)c1cnc2c(C(=O)Nc3cnccc3[C@@H]3C[C@H](C)C[C@H](N)C3)ccc(F)c2c1` (stereo partly drawn) [Example 147, N-(4-((1R,3S,5S)-3-Amino-5-methylcyclohexyl)pyridin-3-yl)-5-fluoro-3-(methyl(2-methylcyclobutyl)amino)quinoline-8-carboxamide], the figures for the IC50 in assay [1], in assay [2] and in assay [3] were ≤ 0.01 µM, ≤ 0.01 µM and ≤ 0.1 µM, respectively.
As for `C[C@@H]1C[C@H](N)C[C@H](c2ccncc2NC(=O)c2ccc(F)c3cc(N4CCOCC4)cnc23)C1` [Example 10, N-{4-[(1R,3S,5S)-3-Amino-5-methylcyclohexyl]pyridin-3-yl}-5-fluoro-3-morpholin-4-ylquinoline-8-carboxamide], the IC50 was ≤ 0.01 µM in assay [1], ≤ 0.01 µM in assay [2] and 0.1 to 1 µM in assay [3].
`CO[C@H]1CCN(c2cnc3c(C(=O)Nc4cnccc4[C@@H]4C[C@H](C)C[C@H](N)C4)ccc(F)c3c2)[C@H](C)C1` [Example 159, N-(4-((1R,3S,5S)-3-Amino-5-methylcyclohexyl)pyridin-3-yl)-5-fluoro-3-((2R,4S)-4-methoxy-2-methylpiperidin-1-yl)quinoline-8-carboxamide]: the IC50 in assay [1] is ≤ 0.01 µM; in assay [2], ≤ 0.01 µM; in assay [3], ≤ 0.1 µM.
On to `C[C@@H]1C[C@H](N)C[C@H](c2ccncc2NC(=O)c2ccc(F)c3cc(N4CCN(C)C(=O)C4)cnc23)C1` [Example 75, N-(4-((1R,3S,5S)-3-Amino-5-methylcyclohexyl)pyridin-3-yl)-5-fluoro-3-(4-methyl-3-oxopiperazin-1-yl)quinoline-8-carboxamide], for which the IC50 in assay [1] was ≤ 0.01 µM; in assay [2], ≤ 0.01 µM; in assay [3] it was ≤ 0.1 µM.
Consider `C[C@@H]1C[C@H](N)C[C@H](c2ccncc2NC(=O)c2ccc(F)c3cc(N(C)CC(F)F)cnc23)C1` [Example 42, N-(4-((1R,3S,5S)-3-Amino-5-methylcyclohexyl)pyridin-3-yl)-3-((2,2-difluoroethyl)(methyl)amino)-5-fluoroquinoline-8-carboxamide], for which the IC50 was ≤ 0.01 µM in assay [1], ≤ 0.01 µM in assay [2] and ≤ 0.1 µM in assay [3].
As to `C[C@@H]1C[C@H](N)C[C@H](c2ccncc2NC(=O)c2ccc(F)c3cc(N(C)c4ccncc4F)cnc23)C1` [Example 145, N-(4-((1R,3S,5S)-3-Amino-5-methylcyclohexyl)pyridin-3-yl)-5-fluoro-3-((3-fluoropyridin-4-yl)(methyl)amino)quinoline-8-carboxamide], the IC50 in assay [1] is ≤ 0.01 µM; in assay [2] it was ≤ 0.01 µM; in assay [3], ≤ 0.1 µM.
`C[C@@H]1C[C@H](N)C[C@H](c2ccncc2NC(=O)c2ccc(F)c3cc(N4CCC4)cnc23)C1` [Example 4, N-{4-[(1R,3S,5S)-3-Amino-5-methylcyclohexyl]pyridin-3-yl}-3-azetidin-1-yl-5-fluoroquinoline-8-carboxamide]: the IC50 in assay [1] was ≤ 0.01 µM; in assay [2], 0.01 to 0.05 µM; in assay [3], 0.1 to 1 µM.

The record behind these values is patent US9920032B2, “Heterocyclic compounds useful as pim kinase inhibitors” (Incyte Corporation, priority 2015, dated 2018).
